Test results: PubChem BioAssay (NCI)
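Following 48 hours of exposure in 96-well plates, responses at five concentrations were used to interpolate endpoints linearly. TGI denotes the concentration required for complete inhibition of growth.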

Experiments:
Assay in all cases: NCI anticancer screen, dose series, 48 h
[1] = system: T-47D breast
[2] = system: NCI-H460 lung
[3] = system: MDA-MB-435
[4] = system: M14 melanoma
[5] = system: EKVX NSCLC
[6] = system: HL-60(TB) leukemia
[7] = system: BT-549 breast
[8] = system: SF-539 CNS
[9] = system: OVCAR-5 ovarian
[10] = system: TK-10 renal
[11] = system: NCI-H522 lung
[12] = system: HT29 colon
[13] = system: PC-3 prostate
[14] = system: DU-145 prostate
[15] = system: HCC-2998 colon
[16] = system: SNB-19 CNS
[17] = system: UACC-257 melanoma
[18] = system: SK-MEL-5 melanoma
[19] = system: UO-31 renal
[20] = system: MCF7 breast
[21] = system: SF-295 CNS
[22] = system: CCRF-CEM leukemia
[23] = system: LOX IMVI melanoma
[24] = system: MOLT-4 leukemia
[25] = system: MDA-N
[26] = system: RPMI-8226 leukemia
[27] = system: HOP-62 NSCLC
[28] = system: OVCAR-3 ovarian
[29] = system: OVCAR-4 ovarian
[30] = system: SF-268 CNS
[31] = system: SK-MEL-28 melanoma
[32] = system: HOP-92 NSCLC
[33] = system: SN12C renal
[34] = system: SK-OV-3 ovarian
[35] = system: KM12 colon
[36] = system: NCI-H23 lung
[37] = system: OVCAR-8 ovarian
[38] = system: HCT-15 colon
[39] = system: HCT-116 colon
[40] = system: COLO 205 colon
[41] = system: IGROV1 ovarian
[42] = system: A549 NSCLC
[43] = system: U251 CNS
[44] = system: K-562 leukemia
[45] = system: SNB-75 CNS
[46] = system: MDA-MB-231 breast
[47] = system: UACC-62 melanoma
[48] = system: SW-620 colon
[49] = system: SR leukemia
[50] = system: 786-0 renal
[51] = system: RXF 393 renal
[52] = system: CAKI-1 renal
[53] = system: MALME-3M melanoma

For `CCOc1ncn(-c2ccc(NC(=S)Nc3cccc(O)c3)cc2)n1`, which TGI [1] is on record?
The TGI was greater than 100 µM.

What about the TGI [2] of the same molecule?
The TGI was greater than 100 µM.

And the TGI [3]?
Its TGI is greater than 100 µM.

And the TGI [4]?
The TGI was greater than 100 µM.

What about the TGI [5] of the same molecule?
The TGI was greater than 100 µM.

What about the TGI [6] of the same molecule?
The TGI was greater than 100 µM.

What about the TGI [7] of the same molecule?
Its TGI is greater than 100 µM.

What about the TGI [8] of the same molecule?
The TGI was greater than 100 µM.

What about the TGI [9] of the same molecule?
Its TGI is greater than 100 µM.

And the TGI [10]?
The TGI was greater than 100 µM.

And the TGI [11]?
Its TGI is greater than 100 µM.

And the TGI [12]?
The TGI was greater than 100 µM.

And the TGI [13]?
Its TGI is greater than 100 µM.

What about the TGI [14] of the same molecule?
The TGI was greater than 100 µM.

And the TGI [15]?
Its TGI is greater than 100 µM.

What about the TGI [16] of the same molecule?
Its TGI is greater than 100 µM.

And the TGI [17]?
The TGI was greater than 100 µM.

What about the TGI [18] of the same molecule?
The TGI was greater than 100 µM.

What about the TGI [19] of the same molecule?
The TGI was greater than 100 µM.

What about the TGI [20] of the same molecule?
The TGI was greater than 100 µM.

And the TGI [21]?
The TGI was greater than 100 µM.

And the TGI [22]?
The TGI was greater than 100 µM.

And the TGI [23]?
The TGI was greater than 100 µM.

And the TGI [24]?
Its TGI is greater than 100 µM.

And the TGI [25]?
The TGI was greater than 100 µM.

And the TGI [26]?
Its TGI is greater than 100 µM.

And the TGI [27]?
The TGI was greater than 100 µM.

And the TGI [28]?
The TGI was greater than 100 µM.

And the TGI [29]?
The TGI was greater than 100 µM.

What about the TGI [30] of the same molecule?
Its TGI is greater than 100 µM.

What about the TGI [31] of the same molecule?
The TGI was greater than 100 µM.

What about the TGI [32] of the same molecule?
Its TGI is greater than 100 µM.

And the TGI [33]?
Its TGI is greater than 100 µM.

What about the TGI [34] of the same molecule?
The TGI was greater than 100 µM.

What about the TGI [35] of the same molecule?
The TGI was greater than 100 µM.

And the TGI [36]?
Its TGI is greater than 100 µM.

What about the TGI [37] of the same molecule?
Its TGI is greater than 100 µM.

What about the TGI [38] of the same molecule?
Its TGI is greater than 100 µM.

And the TGI [39]?
The TGI was greater than 100 µM.

And the TGI [40]?
The TGI was greater than 100 µM.

And the TGI [41]?
The TGI was greater than 100 µM.

What about the TGI [42] of the same molecule?
The TGI was greater than 100 µM.

What about the TGI [43] of the same molecule?
Its TGI is greater than 100 µM.

And the TGI [44]?
The TGI was greater than 100 µM.

What about the TGI [45] of the same molecule?
The TGI was greater than 100 µM.

And the TGI [46]?
The TGI was greater than 100 µM.

And the TGI [47]?
Its TGI is greater than 100 µM.

And the TGI [48]?
The TGI was greater than 100 µM.

What about the TGI [49] of the same molecule?
Its TGI is greater than 100 µM.

What does the source list for `CCOC(=O)C1NCCc2c1[nH]c1ccccc21` (centres undefined)?
TGI [50]: > 10 µM; TGI [1]: > 10 µM; TGI [3]: > 10 µM; TGI [4]: > 10 µM; TGI [5]: > 10 µM; TGI [51]: > 10 µM; TGI [6]: > 10 µM; TGI [7]: > 10 µM; TGI [10]: > 10 µM; TGI [11]: > 10 µM; TGI [12]: > 10 µM; TGI [13]: > 10 µM; TGI [14]: > 10 µM; TGI [15]: > 10 µM; TGI [17]: > 10 µM; TGI [18]: > 10 µM; TGI [52]: > 10 µM; TGI [20]: > 10 µM; TGI [21]: > 10 µM; TGI [22]: > 10 µM; TGI [24]: > 10 µM; TGI [53]: > 10 µM; TGI [25]: > 10 µM; TGI [26]: > 10 µM; TGI [27]: > 10 µM; TGI [28]: > 10 µM; TGI [29]: > 10 µM; TGI [30]: > 10 µM; TGI [31]: > 10 µM; TGI [32]: > 10 µM; TGI [33]: > 10 µM; TGI [34]: > 10 µM; TGI [35]: > 10 µM; TGI [36]: > 10 µM; TGI [37]: > 10 µM; TGI [38]: > 10 µM; TGI [40]: > 10 µM; TGI [41]: > 10 µM; TGI [42]: > 10 µM; TGI [44]: > 10 µM; TGI [45]: > 10 µM; TGI [46]: > 10 µM; TGI [47]: > 10 µM; TGI [48]: > 10 µM; TGI [49]: > 10 µM
